Source: article PMC5082902, “Exported Epoxide Hydrolases Modulate Erythrocyte Vasoactive Lipids during Plasmodium falciparum Infection” (mBio, 2016)

How the values were obtained:
Test in all cases: ELISA of […]([…])-DHET diol product
Format in all cases: biochemical
Settings in all cases: 6 or 12 uM EET, 100 ug enzyme in 100 ul PBS, 37 C, 1.5 h
PfEH1 = target: T1, PfEH1 (Plasmodium falciparum, UniProt Q9Y013)
T1 construct: gene PF3D7_0301300; borders of the construct only in supplement

PfEH2 [1] = target: T2, PfEH2 (Plasmodium falciparum, UniProt Q8IM75)
T2 construct: gene PF3D7_1401300; borders of the construct only in supplement

PfEH2 [2] = target: T2, PfEH2; remark: listed apart in the source

T2 sequence (Q8IM75 entry or part of it): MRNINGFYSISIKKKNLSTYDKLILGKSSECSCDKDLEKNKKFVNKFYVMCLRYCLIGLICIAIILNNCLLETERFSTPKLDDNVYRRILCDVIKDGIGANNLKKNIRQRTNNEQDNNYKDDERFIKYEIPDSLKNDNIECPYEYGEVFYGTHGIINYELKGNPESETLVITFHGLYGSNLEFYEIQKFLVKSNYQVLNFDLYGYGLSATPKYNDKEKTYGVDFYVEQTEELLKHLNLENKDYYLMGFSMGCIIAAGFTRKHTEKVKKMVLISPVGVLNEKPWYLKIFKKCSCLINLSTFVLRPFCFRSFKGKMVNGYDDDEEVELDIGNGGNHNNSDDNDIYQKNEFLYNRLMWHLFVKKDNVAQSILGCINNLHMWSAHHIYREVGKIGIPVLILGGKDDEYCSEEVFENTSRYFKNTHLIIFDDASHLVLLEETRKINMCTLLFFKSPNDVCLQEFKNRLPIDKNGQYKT
T1 sequence (Q9Y013 entry or part of it): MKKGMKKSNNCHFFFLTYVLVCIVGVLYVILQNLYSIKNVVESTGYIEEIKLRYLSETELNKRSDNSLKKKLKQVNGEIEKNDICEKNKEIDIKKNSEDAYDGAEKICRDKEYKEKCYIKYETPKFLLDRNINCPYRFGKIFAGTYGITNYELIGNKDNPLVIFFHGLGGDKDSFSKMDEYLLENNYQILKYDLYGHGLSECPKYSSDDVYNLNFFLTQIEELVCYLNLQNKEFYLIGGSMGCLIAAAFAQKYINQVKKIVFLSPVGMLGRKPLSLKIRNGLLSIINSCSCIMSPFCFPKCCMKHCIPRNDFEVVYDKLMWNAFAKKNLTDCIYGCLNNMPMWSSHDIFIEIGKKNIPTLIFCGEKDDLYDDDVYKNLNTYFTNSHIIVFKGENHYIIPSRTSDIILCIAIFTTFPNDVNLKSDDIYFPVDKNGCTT

| SMILES | ELISA of 11(12)-DHET diol product (PfEH1) | ELISA of 11(12)-DHET diol product (PfEH2 [1]) | ELISA of 14(15)-DHET diol product (PfEH2 [2]) |
| --- | --- | --- | --- |
| CCCCC/C=C\CC1OC1C/C=C\C/C=C\CCCC(=O)O (stereo not drawn) [11(12)-EET] | Both recombinant PfEH1 and PfEH2 enzymes increased the formation of the diol product | Both recombinant PfEH1 and PfEH2 enzymes increased the formation of the diol product |  |
| CCCCCC1OC1C/C=C\C/C=C\C/C=C\CCCC(=O)O (stereo not drawn) [14(15)-EET] |  |  | Both recombinant PfEH1 and PfEH2 enzymes increased the formation of the diol product |
